Source: patent US5741811A, “Polythiophene anti-tumor agents” (Purdue Research Foundation, priority 1996, dated 1998)
Values after ≈ are worked out from the molar mass of the structure shown.

What was measured:
[1] = system: TBE cells (ras-transformed human bronchial epithelial cells); test: Selective cytotoxicity, ras-transformed cells (cell count); assay type: cell-based
[2] = system: NHBE cells (Normal human bronchial epithelial cells); test: Selective cytotoxicity, normal cells (cell count); assay type: cell-based
[3] = system: ras-transformed human bronchial epithelial cells (TBE) tumor; test: In vivo antitumor activity, TBE cells implanted in athymic mice; set-up: species or system athymic mice (human tumor cells); conditions: 25 mg/kg i.p., 4.0 × 10^6 cells/mouse; for Number of Animals with Tumor: five mice
Method: The experiments were carried out at Purdue University athymic mouse laboratory. Athymic mice were purchased from and maintained at the athymic mouse laboratory under […]. Tumor cells (TBE) were obtained from normal human bronchial epithelial cells transfected with plasmic H1 carrying v-Harvey-ras (H-ras) oncogene via protoplast fusion (G. H. Yoakum, J. F. Lechner, E. W. Gabrielson, B. E. Korba, L. Malan-Shibley, J. C. Willey, M. G. Valerio, A. M. Shamsuddin, B. F. Trump and C. C. Harris, Science 227, 1174, 1985. T. C. K. Chan, C.-j. Chang, N. M. Koonchanok and R.L. Geahlen, Biochem. Biophys. Res. Commun., 193, 1152, 1993. The TBE cells were implanted subcutaneously on day 0 of the experiment. Each test group consists of five mice. The compounds tested were dissolved in a saline solution or a saline solution containing 5% of dimethylsulfoxide and 10% cremphor EL (Sigma Chemical Company, St. Louis, Mo.), and were administered intraperitoneously starting on day 2. The solution was administered every four days for a total of four treatments. Tumor volumes were measured every week. The antitumor activity was measured as % of growth inhibition, which is defined by the percentage of the median tumor volume reduction per week of the treated mice divided by the median tumor volume per week of the controlled mice (Tables 9 and 10).

SF-295 CNS cancer cells = test: NCI human tumor cell line panel growth inhibition; assay type: cell-based; conditions: read-out: Log10 GI50 (converted)
DLD-1 colon cancer cells = test: NCI human tumor cell line panel growth inhibition; assay type: cell-based; conditions: Homo sapiens, read-out: Log10 GI50 (converted)
[4] = system: LXPL-529 lung cancer cells; test: NCI human tumor cell line panel growth inhibition; assay type: cell-based
[5] = system: RXF-631 renal cancer cells; test: NCI human tumor cell line panel growth inhibition; assay type: cell-based
U251 CNS cancer cells = test: NCI human tumor cell line panel growth inhibition; assay type: cell-based
UACC-62 melanoma cells = test: NCI human tumor cell line panel growth inhibition; assay type: cell-based
UACC-257 melanoma cells = test: NCI human tumor cell line panel growth inhibition; assay type: cell-based
[6] = system: OVCAR-5 ovarian cancer cells; test: NCI human tumor cell line panel growth inhibition; assay type: cell-based
[7] = system: CAKI-1 renal cancer cells; test: NCI human tumor cell line panel growth inhibition; assay type: cell-based; conditions: CAKI-1, renal cancer
[8] = system: IGROV-1 ovarian cancer cells; test: NCI human tumor cell line panel growth inhibition; assay type: cell-based
TK-10 renal cancer cells = test: NCI human tumor cell line panel growth inhibition; assay type: cell-based
SNB-19 CNS cancer cells = test: NCI human tumor cell line panel growth inhibition; assay type: cell-based; conditions: Homo sapiens, read-out: Log10 GI50 (converted)
[9] = system: KM20L2 colon cancer cells; test: NCI human tumor cell line panel growth inhibition; assay type: cell-based
A-498 renal cancer cells = test: NCI human tumor cell line panel growth inhibition; assay type: cell-based
[10] = system: NCI-H322M lung cancer cells; test: NCI human tumor cell line panel growth inhibition; assay type: cell-based; conditions: Homo sapiens, read-out: Log10 GI50 (converted)
[11] = system: NCI-H226 lung cancer cells; test: NCI human tumor cell line panel growth inhibition; assay type: cell-based
[12] = system: RXF-393 renal cancer cells; test: NCI human tumor cell line panel growth inhibition; assay type: cell-based; conditions: Homo sapiens, read-out: Log10 GI50 (converted)
[13] = system: COLO-205 colon cancer cells; test: NCI human tumor cell line panel growth inhibition; assay type: cell-based; conditions: Homo sapiens; COLO-205, colon cancer; read-out: Log10 GI50 (converted)
[14] = system: HCT-116 colon cancer cells; test: NCI human tumor cell line panel growth inhibition; assay type: cell-based
HOP-18 lung cancer cells = test: NCI human tumor cell line panel growth inhibition; assay type: cell-based; conditions: Homo sapiens, read-out: Log10 GI50 (converted)
[15] = system: HCC-2998 colon cancer cells; test: NCI human tumor cell line panel growth inhibition; assay type: cell-based; conditions: Homo sapiens, read-out: Log10 GI50 (converted)
[16] = system: NCI-H460 lung cancer cells; test: NCI human tumor cell line panel growth inhibition; assay type: cell-based
[17] = system: NCI-H23 lung cancer cells; test: NCI human tumor cell line panel growth inhibition; assay type: cell-based; conditions: read-out: Log10 GI50 (converted)
SNB-75 CNS cancer cells = test: NCI human tumor cell line panel growth inhibition; assay type: cell-based
[18] = Homo sapiens, read-out: Log10 GI50 (converted)

OCc1ccc(-c2ccc(-c3cccs3)s2)s1 [compound 637388]
GI50 [1]: 0.02 µg/mL (≈ 0.0718 µM) | GI50 [2]: 3 µg/mL (≈ 10.8 µM)

O=Cc1ccc(-c2ccc(-c3cccs3)s2)s1 [compound 637393]
GI50 [1]: 0.03 µg/mL (≈ 0.109 µM) | GI50 [2]: 0.2 µg/mL (≈ 0.724 µM)

O=Cc1ccc(-c2ccc(-c3ccc(C=O)s3)s2)s1 [compound 637394]
GI50 [1]: 0.01 µg/mL (≈ 0.0328 µM) | GI50 [2]: 0.2 µg/mL (≈ 0.657 µM)

O=Cc1ccc(-c2ccc(CO)s2)s1 [compound 647073]
GI50 [1]: 0.05 µg/mL (≈ 0.223 µM) | GI50 [2]: 0.08 µg/mL (≈ 0.357 µM)

OCc1ccc(-c2ccc(CO)s2)s1 [compound 647452]
GI50 [1]: 0.03 µg/mL (≈ 0.133 µM) | GI50 [2]: 0.6 µg/mL (≈ 2.65 µM)

O=Cc1ccc(-c2ccc(-c3ccc(CO)s3)s2)s1 [compound 647455]
GI50 [1]: 0.002 µg/mL (≈ 0.00653 µM) | GI50 [2]: 0.1 µg/mL (≈ 0.326 µM) | Tumor Volume ([3]; week 1): 0.0 mm^3 | Number of Animals with Tumor ([3]; week 1): 0 | Tumor Volume ([3]; week 1.5): 1.4 mm^3 | Number of Animals with Tumor ([3]; week 1.5): 1 | Tumor Volume ([3]; week 2): 5.2 mm^3 | Number of Animals with Tumor ([3]; week 2): 3 | Slope ([3]; week 3): 2.16 mm^3 /week | Tumor Growth Inhibition ([3]; week 3): 57% | Tumor Volume ([3]; week 3): 5.8 mm^3 | Number of Animals with Tumor ([3]; week 3): 4 | Slope ([3]; week 4): 1.75 mm^3 /week | Tumor Growth Inhibition ([3]; week 4): 60% | Tumor Volume ([3]; week 4): 5.6 mm^3 | Number of Animals with Tumor ([3]; week 4): 4 | Slope ([3]; week 5): 1.34 mm^3 /week | Tumor Growth Inhibition ([3]; week 5): 61% | Tumor Volume ([3]; week 5): 5.4 mm^3 | Number of Animals with Tumor ([3]; week 5): 4 | Slope ([3]; week 6): 1.60 mm^3 /week | Tumor Growth Inhibition ([3]; week 6): 45% | Tumor Volume ([3]; week 6): 10.6 mm^3 | Number of Animals with Tumor ([3]; week 6): 5 | Slope ([3]; week 8.6): 2.07 mm^3 /week | Tumor Growth Inhibition ([3]; week 8.6): 21% | Tumor Volume ([3]; week 8.6): 18.8 mm^3 | Number of Animals with Tumor ([3]; week 8.6): 5

NCc1ccc(-c2ccc(-c3cccs3)s2)s1 [compound 652866]
GI50 [1]: 0.001 µg/mL (≈ 0.0036 µM) | GI50 [2]: 0.01 µg/mL (≈ 0.036 µM)

NCc1ccc(-c2ccc(-c3ccc(CO)s3)s2)s1 [compound 656898]
GI50 [1]: 0.02 µg/mL (≈ 0.065 µM) | GI50 [2]: 3 µg/mL (≈ 9.76 µM)

NCc1ccc(-c2ccc(-c3ccc(CN)s3)s2)s1 [compound 658110]
GI50 [1]: 4 µg/mL (≈ 13.1 µM) | GI50 [2]: 10 µg/mL (≈ 32.6 µM)

OCc1ccc(-c2ccc(-c3sccc3CO)s2)s1 [compound 658875]
GI50 [1]: 0.002 µg/mL (≈ 0.00648 µM) | GI50 [2]: 9.7 µg/mL (≈ 31.4 µM)

O=Cc1ccc(-c2ccc(-c3sccc3CO)s2)s1 [compound 658876]
GI50 [1]: 0.02 µg/mL (≈ 0.0653 µM) | GI50 [2]: 0.4 µg/mL (≈ 1.31 µM)

O=Cc1ccc(-c2ccc(-c3sccc3C=O)s2)s1 [compound 658877]
GI50 [1]: 0.03 µg/mL (≈ 0.0985 µM) | GI50 [2]: 0.6 µg/mL (≈ 1.97 µM)

OCc1csc(-c2ccc(-c3ccc(CO)s3)s2)c1 [compound 658878]
GI50 [1]: 0.002 µg/mL (≈ 0.00648 µM) | GI50 [2]: 8 µg/mL (≈ 25.9 µM)

O=Cc1ccc(-c2ccc(-c3cc(CO)cs3)s2)s1 [compound 658879]
GI50 [1]: 0.004 µg/mL (≈ 0.0131 µM) | GI50 [2]: 6.2 µg/mL (≈ 20.2 µM)

CC[N+](CC)(CC)Cc1ccc(-c2ccc(-c3cccs3)s2)s1 [compound 659561]
GI50 [1]: 2 µg/mL | GI50 [2]: 5 µg/mL

O=Cc1ccc(-c2ccc(-c3ccsc3)s2)s1 [compound 660643]
GI50 [1]: 0.005 µg/mL (≈ 0.0181 µM) | GI50 [2]: 2.4 µg/mL (≈ 8.68 µM)

OCc1ccc(-c2ccc(-c3ccsc3)s2)s1 [compound 660644]
GI50 [1]: 0.002 µg/mL (≈ 0.00718 µM) | GI50 [2]: 3.6 µg/mL (≈ 12.9 µM)

OCc1ccc(-c2ccc(-c3cccs3)s2)s1 [drawing 30]
GI50 (SF-295 CNS cancer cells): 33900 nM | GI50 (DLD-1 colon cancer cells): 4470 nM | GI50 [4, 18]: < 10 nM | GI50 [5, 18]: 28.2 nM | GI50 (U251 CNS cancer cells; Homo sapiens, U-251, read-out: Log10 GI50 (converted)): 148 nM | GI50 (UACC-62 melanoma cells; [18]): < 10 nM | GI50 (UACC-257 melanoma cells; [18]): 102 nM | GI50 [6, 18]: 224 nM | GI50 [7, 18]: 27.5 nM | GI50 [8, 18]: 42.7 nM | GI50 (TK-10 renal cancer cells; [18]): 105 nM | GI50 (SNB-19 CNS cancer cells): 18600 nM | GI50 ([9]; Homo sapiens, KM-20L2, read-out: Log10 GI50 (converted)): 245 nM | GI50 (A-498 renal cancer cells; Homo sapiens, A498, read-out: Log10 GI50 (converted)): < 10 nM | GI50 [10]: 29500 nM | GI50 [11, 18]: 117 nM | GI50 [12]: 31.6 nM | GI50 [13]: 912 nM | GI50 [14, 18]: 295 nM | GI50 (HOP-18 lung cancer cells): 22400 nM | GI50 [15]: 36300 nM | GI50 [16, 18]: 490 nM | GI50 [17]: 70800 nM

O=Cc1ccc(-c2ccc(-c3ccc(C=O)s3)s2)s1 [drawing 35]
Log10 GI50 [4]: -5.95 M | Log10 GI50 [5]: -4.03 M | Log10 GI50 (U251 CNS cancer cells): -6.09 M | Log10 GI50 (UACC-62 melanoma cells): -6.46 M | Log10 GI50 (UACC-257 melanoma cells): -5.72 M | Log10 GI50 [6]: -4.68 M | Log10 GI50 [7]: -5.88 M | Log10 GI50 (SNB-75 CNS cancer cells): -4.14 M | Log10 GI50 [8]: -5.15 M | Log10 GI50 (TK-10 renal cancer cells): -5.29 M | Log10 GI50 [9]: -4.39 M | Log10 GI50 (A-498 renal cancer cells): -5.93 M | Log10 GI50 [11]: -5.76 M | Log10 GI50 [14]: -4.74 M | Log10 GI50 [16]: -5.62 M
